According to PMC7076710, “Synthesis, Identification, and Structure–Activity Relationship Analysis of GATA4 and NKX2-5 Protein–Protein Interaction Modulators” (Journal of Medicinal Chemistry, 2019):
Where two headings read alike, the source gives them in different places.

Experiments:
Format in all cases: cell-based
[1] = tested on: rat BNP promoter activity in neonatal rat ventricular myocytes; experiment: BNP promoter luciferase reporter in neonatal cardiomyocytes with or without endothelin-1
Method: Five compounds (GATA4–NKX2-5 synergy inhibitors 1, 61, and 65; the synergy activator 2; and the NKX2-5 activity inhibitor 47c) were selected for studies in neonatal cardiomyocytes, which were treated with endothelin-1 (ET-1), a well-established hypertrophic agonist that activates the gene expression of both ANP and BNP (Figure 4). The myocytes were transfected with construct containing −534/+4 proximal region of rat BNP promoter with GATA4 and NKX2-5 binding sites in front of luciferase before exposure to compounds and ET-1, which was added 1 h after the compounds.
Figure 4 Effects of the compounds 1, 2, 47c, 61, and 65 on BNP gene activation in cardiomyocytes. Neonatal cardiomyocytes were transfected with rat BNP luciferase reporter for 24 h. The cells were exposed to compounds and 1 h later to endothelin-1 (ET-1) for 24 h. The results are expressed as +SD (n = 3 or 9 for DMSO groups). ***P < 0.001 vs DMSO; **P < 0.01 vs DMSO; *P < 0.05 vs DMSO (one-way ANOVA followed by Tukey’s HSD or Welch ANOVA followed by Games–Howell); ^###P < 0.001 vs DMSO, no stimulus (independent samples Student’s t test).
The plasmids expressing mouse GATA4 protein, pMT2-GATA4, and empty pMT2 were gifts from D. B. Wilson (Department of Pediatrics, St. Louis Children’s Hospital, St. Louis, MO).[44] The plasmids expressing mouse NKX2-5 protein, pMT2-NKX2-5, have been described earlier.[28] The luciferase reporter plasmid used in GATA4–NKX2-5 transcriptional synergy assay and NKX transcriptional assay, pGL3-3xHA, contains three high affinity binding sites for NKX2-5.[28] The luciferase reporter plasmid used in GATA transcriptional assay, NP-112, contains tandem GATA-sites and minimal promoter of rat brain natriuretic peptide (BNP) gene.[45] The pGL3-BNP luciferase reporter containing −534/+4 bp rat BNP proximal promoter described previously was used in hypertrophy assay.[46]
The neonatal rat ventricular myocytes were isolated from 2- to 3-day-old Wistar rats, as described earlier.[29],[32] Rat pups were acquired from the experimental animal facility of the University of Helsinki with an internal use license (KEK17-012). Animals were housed in standard conditions, and their handling and all procedures were carried out in accordance with University of Helsinki institutional guidelines, which conform to the National Research Council (U.S.) Guide for the Care and Use of Laboratory Animals.[47] The cells were seeded at 50 000 cells/well in Isoplate-96 microplates (PerkinElmer, Turku, Finland) and cultured for 18–20 h with Dulbecco’s modified Eagle medium (DMEM)/F12 culture medium containing 2.5 mM L-glutamine, supplemented with 100 IU/mL penicillin–streptomycin and 10% fetal bovine serum (all from Gibco, Thermo Scientific). Transfections were carried out for 24 h in serum free media (CSFM; DMEM/F12, 2.5 mg/mL bovine serum albumin, 1 μM insulin, 2.5 mM L-glutamine, 32 nM selenium, 2.8 mM sodium pyruvate, 5.64 μg/mL transferrin, 1 nM T3, and 100 IU/mL PS) by using 100 ng of pGL3-BNP luciferase plasmid per well in a 1:3 ratio of DNA/transfection reagent (Fugene 6, Promega). […] After 24 h, the luminescence was measured as above.
Results from cardiomyocyte experiments are expressed as mean + SD from at least three independent experiments. Data were analyzed using IBM SPSS Statistics 24 software. […] Significance between ET-1 and DMSO samples was analyzed with independent samples Student’s t test. […]

[2] = target: T1, GATA4–NKX2-5 transcriptional synergy (Mus musculus, UniProt P42582+Q08369); experiment: GATA4–NKX2-5 transcriptional synergy luciferase reporter assay (3xNKE reporter, COS-1 cells); settings: COS-1, luciferase reporter activity relative to control
T1 construct: expressed in transfected cells; host or cells: COS-1
T1 sequence (Q08369 whole entry): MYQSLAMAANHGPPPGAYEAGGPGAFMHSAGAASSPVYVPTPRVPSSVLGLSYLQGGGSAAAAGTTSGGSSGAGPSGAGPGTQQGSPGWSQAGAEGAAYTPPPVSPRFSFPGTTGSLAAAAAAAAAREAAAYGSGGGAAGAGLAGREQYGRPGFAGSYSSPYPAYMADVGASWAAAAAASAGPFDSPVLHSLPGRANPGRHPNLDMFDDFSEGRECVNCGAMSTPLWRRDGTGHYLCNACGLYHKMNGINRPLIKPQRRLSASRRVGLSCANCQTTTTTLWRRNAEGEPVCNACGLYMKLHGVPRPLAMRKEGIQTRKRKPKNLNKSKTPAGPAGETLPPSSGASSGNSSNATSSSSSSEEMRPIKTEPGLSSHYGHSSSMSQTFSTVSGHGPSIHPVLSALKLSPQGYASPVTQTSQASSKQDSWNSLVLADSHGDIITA
T1 sequence (P42582 whole entry): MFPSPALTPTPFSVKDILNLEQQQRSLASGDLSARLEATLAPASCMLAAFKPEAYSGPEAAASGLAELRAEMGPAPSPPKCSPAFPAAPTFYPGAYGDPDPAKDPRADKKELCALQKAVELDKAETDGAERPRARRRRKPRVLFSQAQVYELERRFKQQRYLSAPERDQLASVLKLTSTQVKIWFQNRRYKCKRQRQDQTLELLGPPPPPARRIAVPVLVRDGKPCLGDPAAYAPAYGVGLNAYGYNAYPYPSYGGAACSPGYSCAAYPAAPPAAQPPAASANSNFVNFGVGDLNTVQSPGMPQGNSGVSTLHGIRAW

[3] = target: T2, NKX2-5 transcriptional activity (Mus musculus, UniProt P42582); experiment: NKX2-5 luciferase reporter assay (3xNKE reporter, COS-1 cells); settings: COS-1, luciferase reporter activity relative to control; for activity at 3 µM: read-out: NKX.3µM; for activity at 10 µM: read-out: NKX.10µM
T2 construct: expressed in transfected cells; host or cells: COS-1
T2 sequence (P42582 whole entry): as above

[4] = target: T3, GATA4 transcriptional activity (Mus musculus, UniProt Q08369); experiment: GATA4 luciferase reporter assay (tandem GATA-site reporter, COS-1 cells); settings: COS-1, luciferase reporter activity relative to control
T3 construct: expressed in transfected cells; host or cells: COS-1
T3 sequence (Q08369 whole entry): as the sequence (Q08369 whole entry) above

COS-1 cells [5] = experiment: LDH assay (necrosis)
COS-1 cells [6] = experiment: MTT assay (cell viability); settings: cell viability

For “ET-1: endothelin-1, a well-established hypertrophic agonist that activates the gene expression of both ANP and BNP [reference compound]”, the “increase in BNP gene activity” value ([1]; neonatal cardiomyocytes, 24 h) was roughly 3 fold.
CCN(CC)c1ccc(NC(=O)c2csc([N+](=O)[O-])c2)cc1 [Compound 47u] showed an activity at 3 µM ([2]; 3 µM) of 32.3%, an activity at 10 µM ([2]; 10 µM) of 24.5% and an activity at 3 µM ([3]; 3 µM) of 37.8%. The activity at 3 µM ([4]; 3 µM) was 28.7%, the LDH.1µM (COS-1 cells [5]) was 7.78 and the LDH.3µM (COS-1 cells [5]) was 6.19. The LDH.10µM (COS-1 cells [5]) was 2.98, the LDH.30µM (COS-1 cells [5]) was 1.83 and the MTT.1µM (COS-1 cells [6]) was 105.56. For the same molecule, the MTT.3µM (COS-1 cells [6]) was 102.26, the MTT.10µM (COS-1 cells [6]) was 97.2 and the MTT.30µM (COS-1 cells [6]) was 88.36.
In the case of CCN(CC)c1ccc(NC(=O)c2c(C)noc2-c2ccccc2)cc1 [Compound 65], the activity at 3 µM ([2]; 3 µM) is reported as 51.9%, the activity at 3 µM ([3]; 3 µM) is reported as 53.5% and the activity at 3 µM ([4]; 3 µM) is reported as 90%. It also gave an activity at 10 µM ([4]; 10 µM) of 64.2%, an LDH.1µM (COS-1 cells [5]) of 0.39 and an LDH.3µM (COS-1 cells [5]) of -0.82. It also gave an LDH.10µM (COS-1 cells [5]) of -1.85, an LDH.30µM (COS-1 cells [5]) of -0.07 and an MTT.1µM (COS-1 cells [6]) of 96.79. For the same molecule, the MTT.3µM (COS-1 cells [6]) was 83.46, the MTT.10µM (COS-1 cells [6]) was 81.39 and the MTT.30µM (COS-1 cells [6]) was 84.64.
Molecule CCN(CC)c1ccc(NC(=O)c2c(-c3ccsc3)noc2C)cc1 [Compound 39m] has an activity at 3 µM ([2]; 3 µM) of 87.2%, an activity at 3 µM ([3]; 3 µM) of 122% and an activity at 3 µM ([4]; 3 µM) of 103%. It also gave an LDH.1µM (COS-1 cells [5]) of -0.35, an LDH.3µM (COS-1 cells [5]) of 0.79 and an LDH.10µM (COS-1 cells [5]) of -1.72. For the same molecule, the LDH.30µM (COS-1 cells [5]) was -1.23, the MTT.1µM (COS-1 cells [6]) was 102.49 and the MTT.3µM (COS-1 cells [6]) was 98.85. For the same molecule, the MTT.10µM (COS-1 cells [6]) was 88.28 and the MTT.30µM (COS-1 cells [6]) was 82.62.
CCN(c1ccc(NC(=O)c2cnsc2)cc1)C(C)C [Compound 61] showed an activity at 3 µM ([2]; compound 3 µM) of 28.8%, an activity at 10 µM ([2]; compound 10 µM) of 11.6% and an activity at 3 µM ([3]; compound 3 µM) of 38.2%. For the same molecule, the activity at 10 µM ([3]; compound 10 µM) was 10.7%, the activity at 3 µM ([4]; compound 3 µM) was 71.1% and the activity at 10 µM ([4]; compound 10 µM) was 20.4%. The “inhibition of the ET-1 hypertrophic response, BNP gene activity (in words)” value ([1]; 30 μM, ET-1 added 1 h after compound) was “the most potent inhibitor of the hypertrophic response” and the “effect on BNP promoter activity in cardiomyocytes (in words)” value ([1]; neonatal cardiomyocytes, 24 h) was “most strongly inhibited the BNP promoter activity”.
Work on CCN(CC)c1ccc(NC(=O)c2ccnn2-c2ccccc2)cc1 [SI88] yielded an activity at 3 µM ([2]; 3 µM) of 62.4%, an activity at 10 µM ([2]; 10 µM) of 52.7% and an activity at 3 µM ([3]; 3 µM) of 75.3%. The activity at 10 µM ([3]; 10 µM) was 60.7%, the activity at 3 µM ([4]; 3 µM) was 92.3% and the activity at 10 µM ([4]; 10 µM) was 61.8%. For the same molecule, the LDH.1µM (COS-1 cells [5]) was 2.08, the LDH.3µM (COS-1 cells [5]) was -0.13 and the LDH.10µM (COS-1 cells [5]) was 0.07. For the same molecule, the LDH.30µM (COS-1 cells [5]) was -1.27, the MTT.1µM (COS-1 cells [6]) was 105.89 and the MTT.3µM (COS-1 cells [6]) was 89.83. It also gave an MTT.10µM (COS-1 cells [6]) of 83.67 and an MTT.30µM (COS-1 cells [6]) of 88.35.
C=CCN(Cc1ccc(N(CC)CC)cc1)c1c(-c2ccccc2)noc1C [Compound 30b] was tested, and the activity at 3 µM ([2]; 3 µM) was 84.5%, the activity at 3 µM ([3]; 3 µM) was 97.2% and the activity at 3 µM ([4]; 3 µM) was 82.8%. The LDH.1µM (COS-1 cells [5]) was -1.6, the LDH.3µM (COS-1 cells [5]) was -0.27 and the LDH.10µM (COS-1 cells [5]) was 1.75. It also gave an LDH.30µM (COS-1 cells [5]) of 3.61, an MTT.1µM (COS-1 cells [6]) of 104.18 and an MTT.3µM (COS-1 cells [6]) of 97.12. It also gave an MTT.10µM (COS-1 cells [6]) of 96.41 and an MTT.30µM (COS-1 cells [6]) of 84.34.
Cc1onc(-c2ccccc2)c1C(=O)Nc1ccc(OCc2ccccc2)cc1 [SI8] showed an activity at 3 µM ([2]; 3 µM) of 86.4%, an activity at 10 µM ([2]; 10 µM) of 71.9% and an activity at 3 µM ([3]; 3 µM) of 84.9%. The activity at 10 µM ([3]; 10 µM) was 72.2%, the activity at 3 µM ([4]; 3 µM) was 104% and the activity at 10 µM ([4]; 10 µM) was 83.8%. The LDH.1µM (COS-1 cells [5]) was -0.14, the LDH.3µM (COS-1 cells [5]) was 2.05 and the LDH.10µM (COS-1 cells [5]) was -0.31. It also gave an LDH.30µM (COS-1 cells [5]) of 1.97, an MTT.1µM (COS-1 cells [6]) of 105.45 and an MTT.3µM (COS-1 cells [6]) of 102.65. The MTT.10µM (COS-1 cells [6]) was 100.93 and the MTT.30µM (COS-1 cells [6]) was 59.22.
Work on CCN(CC)c1ccc(NCc2c[nH]nc2-c2cc(F)cc(F)c2)cc1 [SI79] yielded an activity at 3 µM ([2]; 3 µM) of 98.9%, an activity at 10 µM ([2]; 10 µM) of 92.2% and an activity at 3 µM ([3]; 3 µM) of 88.7%. For the same molecule, the activity at 10 µM ([3]; 10 µM) was 71.4%, the activity at 3 µM ([4]; 3 µM) was 92.7% and the activity at 10 µM ([4]; 10 µM) was 78.5%. It also gave an LDH.1µM (COS-1 cells [5]) of 2.87, an LDH.3µM (COS-1 cells [5]) of 1.38 and an LDH.10µM (COS-1 cells [5]) of -0.15. The LDH.30µM (COS-1 cells [5]) was -0.35, the MTT.1µM (COS-1 cells [6]) was 101.61 and the MTT.3µM (COS-1 cells [6]) was 103.16. The MTT.10µM (COS-1 cells [6]) was 104.94 and the MTT.30µM (COS-1 cells [6]) was 103.16.
With CCN(CC)c1ccc(NC(=O)c2c(-c3ccncc3)noc2C)cc1 [Compound 39c] the activity at 3 µM ([2]; 3 µM) was 81.1%, the activity at 3 µM ([3]; 3 µM) was 100% and the activity at 3 µM ([4]; 3 µM) was 94%. It also gave an LDH.1µM (COS-1 cells [5]) of 0.58, an LDH.3µM (COS-1 cells [5]) of 0.49 and an LDH.10µM (COS-1 cells [5]) of -0.99. For the same molecule, the LDH.30µM (COS-1 cells [5]) was -0.68, the MTT.1µM (COS-1 cells [6]) was 105.77 and the MTT.3µM (COS-1 cells [6]) was 106.28. The MTT.10µM (COS-1 cells [6]) was 90.58 and the MTT.30µM (COS-1 cells [6]) was 90.91.
In the case of CCN(CC)c1ccc(NC(=O)c2cnoc2-c2ccccc2)cc1 [Compound 47d], the activity at 3 µM ([2]; 3 µM) is reported as 65.4%, the activity at 3 µM ([3]; 3 µM) is reported as 56.3% and the activity at 3 µM ([4]; 3 µM) is reported as 95.2%. It also gave an LDH.1µM (COS-1 cells [5]) of 3.03, an LDH.3µM (COS-1 cells [5]) of 0.88 and an LDH.10µM (COS-1 cells [5]) of -0.44. The LDH.30µM (COS-1 cells [5]) was 0.42, the MTT.1µM (COS-1 cells [6]) was 107.01 and the MTT.3µM (COS-1 cells [6]) was 95.86. For the same molecule, the MTT.10µM (COS-1 cells [6]) was 90.87 and the MTT.30µM (COS-1 cells [6]) was 93.95.
